Measurements from publication PMC11345839, “Synthesis and Characterization of Folic Acid-Conjugated Terbium Complexes as Luminescent Probes for Targeting Folate Receptor-Expressing Cells” (Journal of Medicinal Chemistry, 2024).

How the values were obtained:
[1] = set-up: method as in PMID 30296376; conditions: λex = 776 nm; cited from earlier work
[2] = set-up: method as in PMID 30296376; conditions: λex = 776 nm, λem = 793 nm; cited from earlier work
[3] = target: T1, FRα (Homo sapiens, UniProt P15328); assay: Folate-FITC binding competition assay (flow cytometry), FRα on KB cells; conditions: competition with 10 nM Folate-FITC
T1 construct: Human KB nasopharyngeal epidermoid carcinoma cells (expressing FRα); endogenous in cells; host or cells: KB nasopharyngeal epidermoid carcinoma cells
Protocol: (§1) To assess the binding affinity of the terbium-folate conjugates, a flow cytometry binding competition assay was carried out with folate-FITC and increasing concentrations of terbium-folate conjugates with FRα and FRβ expressing cells. The affinity of FRα and FRβ for the terbium-folate conjugates is expressed relative to folic acid, which is given the value of 1.
(§2) Human KB nasopharyngeal epidermoid carcinoma cells (expressing FRα) and FRβ-transfected Chinese Hamster Ovary cells were cultured in Folate-free RPMI medium (Thermo Fisher Scientific) supplemented with 20% Newborn Calf Serum, 1% antibiotics (penicillin and streptomycin) and 25 mM HEPES, in a humidified 37 °C incubator with 5% CO2 as described by Van der Heijden et al.[4] The culture medium was refreshed every 3 days. Stock solutions (1 mM) of Tb-folate conjugates were made by dissolving in 50 mM NaHCO3 and stored at −20 °C until use. […] Flow cytometry data was analyzed in FlowJo v10.8 Software (BD Life Sciences). […] Data from 6–9 replicative experiments were analyzed. […]
(§3) Considering FRα and FRβ share the same affinity for folic acid and Folate-FITC, relative affinities for Tb-folate compounds were expressed relative to folic acid.[59],[60] The relative affinity was calculated using [drawing 1] […]

[4] = target: T2, FRβ (Homo sapiens, UniProt P14207); assay: Folate-FITC binding competition assay (flow cytometry), FRβ on CHO/FRβ transfected cells; conditions: competition with 1 nM Folate-FITC
T2 construct: expressed in transfected cells; host or cells: Chinese Hamster Ovary (CHO) cells
Protocol: as §1, §2, §3

[5] = UV-vis absorption (molar extinction coefficient); assay type: physicochemical; conditions: H2O, λmax = 281 nm, mixture of regioisomers
Source text: The absorption spectrum of folic acid is characterized by two absorption bands in the region of 250–300 and 300–400 nm, which correspond to the π → π* transition for the pterin and the n → π* transition for the p-amino benzoyl acid moieties respectively.[46] […] Differences are observed for TbL,^4 which is red-shifted and broadened due to the overlap with the acetophenone moiety; similar absorbance spectra of acetophenone-folate complexes have been reported by Quici et al.[16]
UV–vis spectra were recorded on a Cary60 UV–vis spectrophotometer fitted with a xenon source lamp or on a Jasco V-770 UV–visible/NIR spectrophotometer.

[6] = system: FR; conditions: cited from earlier work

T2 sequence (P14207 17-255): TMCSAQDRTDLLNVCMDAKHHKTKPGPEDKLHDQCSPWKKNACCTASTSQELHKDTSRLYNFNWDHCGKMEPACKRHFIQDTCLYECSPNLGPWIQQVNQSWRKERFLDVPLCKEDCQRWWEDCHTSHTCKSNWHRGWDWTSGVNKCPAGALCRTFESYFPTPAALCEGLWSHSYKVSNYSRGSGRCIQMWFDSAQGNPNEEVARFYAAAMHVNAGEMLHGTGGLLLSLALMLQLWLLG
T1 sequence (P15328 25-257): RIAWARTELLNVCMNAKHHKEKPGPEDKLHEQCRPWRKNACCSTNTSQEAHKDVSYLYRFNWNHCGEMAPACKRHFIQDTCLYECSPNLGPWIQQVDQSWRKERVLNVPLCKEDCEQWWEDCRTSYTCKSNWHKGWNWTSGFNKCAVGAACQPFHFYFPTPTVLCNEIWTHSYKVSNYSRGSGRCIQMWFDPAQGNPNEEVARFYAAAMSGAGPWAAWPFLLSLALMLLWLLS

CC1(C)C(/C=C/C2=C(Oc3ccc(C[C@H](NC(=O)c4ccc(NCc5cnc6nc(N)[nH]c(=O)c6n5)cc4)C(=O)[O-])cc3)C(=C/C=C3\N(CCCCS(=O)(=O)[O-])c4ccc(S(=O)(=O)[O-])cc4C3(C)C)/CCC2)=[N+](CCCCS(=O)(=O)[O-])c2ccc(S(=O)(=O)[O-])cc21.[H+].[H+].[H+].[H+] [OTL38]
ε (molar extinction coefficient) [1]: 272 000 M^–1 cm^–1 | Φ (quantum yield) [2]: 15.1%

Nc1nc(=O)c2nc(CNc3ccc(C(=O)N[C@@H](CCC(=O)O)C(=O)O)cc3)cnc2[nH]1 [ChEBI_27470, folic acid]
relative binding affinity to FRα (folic acid = 1) [3]: 1 | relative binding affinity to FRβ (folic acid = 1) [4]: 1

Folate-PEG6-DOTA [L^1αγ]
ε (molar extinction coefficient) of free ligand [5]: 20013 M^–1 cm^–1

CN1c2c(nc(N)[nH]c2=O)NCC1CNc1ccc(C(=O)N[C@@H](CCC(=O)O)C(=O)O)cc1 (stereo partly drawn) [5-methyltetrahydrofolate]
FR affinity, fold lower than folic acid [6]: approximately 10 fold
